The CheMixHub viscosity set

Test: xn = mol fraction of the nth substance listed

CC1CCCCC1 + CCCCCO
303.15 K, 101.33 kPa
Conditions	viscosity [mPa·s]
x1 = 0.0947	2.283
x1 = 0.2614	1.737
x1 = 0.42	1.289
x1 = 0.5783	0.968
x1 = 0.7422	0.777
x1 = 0.9027	0.663
x2 = 0.1011	0.7025
x2 = 0.2073	0.7951
x2 = 0.3017	0.8911
x2 = 0.4214	1.039
x2 = 0.4998	1.16
x2 = 0.5988	1.325
x2 = 0.7007	1.535
x2 = 0.8084	1.852
x2 = 0.9144	2.305

CCCNCCC + CCCCCO
viscosity [mPa·s], 101.33 kPa
Conditions	x1 = 0.0952	x1 = 0.1918	x1 = 0.2881	x1 = 0.3825	x1 = 0.5157	x1 = 0.616	x1 = 0.7094	x1 = 0.8061	x1 = 0.9023
303.15 K	2.51	2.185	1.875	1.593	1.244	1.034	0.8687	0.7254	0.6098
313.15 K	2.051	1.767	1.51	1.281	1.02	0.8452	0.7187	0.6045	0.5061

CCOC(=O)c1ccccc1 + CCCCCO
viscosity [mPa·s], 101.3 kPa
Conditions	x1 = 0.0771	x1 = 0.1582	x1 = 0.2437	x1 = 0.3339	x1 = 0.4292	x1 = 0.53	x1 = 0.6369	x1 = 0.7504	x1 = 0.8712
303 K	2.883	2.764	2.656	2.533	2.404	2.273	2.135	1.985	1.865
308 K	2.541	2.449	2.349	2.25	2.154	2.031	1.92	1.8	1.691
313 K	2.224	2.139	2.051	1.962	1.875	1.787	1.701	1.615	1.528
318 K	2.005	1.931	1.86	1.789	1.723	1.648	1.56	1.485	1.41
323 K	1.798	1.739	1.68	1.626	1.569	1.505	1.439	1.376	1.313

OC(c1ccccc1)(c1ccccc1)c1ccccc1 + CCCCCOC(C)=O
Conditions	viscosity [mPa·s]
298.15 K, 101 kPa, x2 = 0.5	1.9

CC(C)O + CCCCO
298.15 K, 101 kPa
Conditions	viscosity [mPa·s]
x2 = 0.1026	2.057
x2 = 0.2012	2.105
x2 = 0.302	2.145
x2 = 0.4045	2.207
x2 = 0.5086	2.269
x2 = 0.6002	2.327
x2 = 0.734	2.402
x2 = 0.7964	2.437
x2 = 0.9021	2.506

CCCCCl + CCCCO
viscosity [mPa·s], 101 kPa
Conditions	x1 = 0.0749	x1 = 0.2028	x1 = 0.3021	x1 = 0.4122	x1 = 0.5016	x1 = 0.6048	x1 = 0.7044	x1 = 0.8062	x1 = 0.9064
298.15 K	2.121	1.523	–	0.9486	–	0.6572	0.5679	0.4955	0.4465
313.15 K	1.449	1.081	0.8789	0.7145	0.6192	0.5213	0.4589	0.4114	0.3742

CCOC(=O)[C@@H](O)[C@H](O)C(=O)OCC + CCCCO
viscosity [mPa·s], 101 kPa
Conditions	x1 = 0.0999	x1 = 0.1999	x1 = 0.3	x1 = 0.4001	x1 = 0.4999	x1 = 0.5999	x1 = 0.7001	x1 = 0.8001	x1 = 0.8999
293.15 K	3.887	5.56	8.24	12.44	18.99	29.36	42.81	68.14	118.3
298.15 K	3.353	4.704	6.807	9.946	14.79	22.09	31.37	47.6	78.41
303.15 K	2.902	3.987	5.63	8.08	11.64	16.9	23.32	34.35	54.15
308.15 K	2.527	3.408	4.729	6.627	9.328	13.22	17.74	25.53	38.75
313.15 K	2.217	2.928	3.975	5.454	7.552	10.48	13.83	19.41	28.56
318.15 K	1.953	2.557	3.433	4.631	6.283	8.549	11.11	15.2	21.73
323.15 K	1.746	2.26	2.993	3.98	5.303	7.092	9.107	12.19	16.99
